Reference: publication PMC9853847 (2023)

Tests used:
Assay in all cases: FRET titration (MLCT donor to Cy5.5-labeled DNA), dose-response fit
[1] = system: mismatch 1 duplex (27-mer, CC mismatch at 4 bp) (DNA, mismatch bulge abasic) GACCAGCTTATCACCCCTAGATACCAT/ATGGTATCTAGGGGTGATAAGCTCGTC; conditions: 200 mM NaCl; 5 mM Tris, pH 7.5; 1 μM DNA
[2] = system: G-quadruplex (G4) (DNA, G4) AGGGTTAGGGTTAGGGTTAGGG; conditions: 100 mM KCl, 10 mM Tris.HCl, pH 7.4, 1 μM DNA
[3] = system: 20-mer duplex (DNA, duplex) TGAGGATGTGTAGGTTGATG/CATCAACCTACACATCCTCA; conditions: 200 mM NaCl; 5 mM Tris, pH 7.5; 1 μM DNA
[4] = system: 3WJ (three-way junction) (DNA, junction) TGAGGATGTGTAGGTTGATG/CATCAACCTAAGAATGAGAC/GTCTCATTCTCACATCCTCA; conditions: 200 mM NaCl, 5 mM Tris, pH 7.5, 1 μM DNA
[5] = system: mismatch 3 duplex (27-mer, CC mismatch at 24 bp) (DNA, mismatch bulge abasic) GACCAGCTTATCACCCCTAGATACCAT/ATGCTATCTAGGGGTGATAAGCTGGTC; conditions: 200 mM NaCl; 5 mM Tris, pH 7.5; 1 μM DNA
[6] = system: mismatch 2 duplex (27-mer, CC mismatch at 14 bp) (DNA, mismatch bulge abasic) GACCAGCTTATCACCCCTAGATACCAT/ATGGTATCTAGGGCTGATAAGCTGGTC; conditions: 200 mM NaCl; 5 mM Tris, pH 7.5; 1 μM DNA
[7] = system: matched duplex (27-mer) (DNA, duplex) GACCAGCTTATCACCCCTAGATACCAT/ATGGTATCTAGGGGTGATAAGCTGGTC; conditions: 200 mM NaCl; 5 mM Tris, pH 7.5; 1 μM DNA
[8] = not saturated, tested up to 20 μM

Kd [1] [µM] | Kd [2] [µM] | Kd [3] [µM] | Kd [4] [µM] | Kd [5] [µM] | Kd [6] [µM] | Kd [7] [µM] | Kd [2, 8] [µM] | Kd ([4]; tested up to 20 μM) [µM] | SMILES
4.6 ± 0.6 | 3.8 ± 1.7 | 2.3 ± 0.5 | 4.4 ± 0.7 | 5.1 ± 0.3 | 4.3 ± 0.6 | 4.7 ± 0.1 | – | – | Cc1ccc(-c2ccc(C)cn2)nc1.Cc1ccc(-c2ccc(C)cn2)nc1.[Ru+2].c1ccc2nc3c4cccnc4c4ncccc4c3nc2c1
7.3 ± 2.5 | – | 2.6 ± 1.0 | 6.4 ± 0.3 | 7.6 ± 1.9 | > 20 | 7.9 ± 2.5 | > 20 | – | Cc1ccc(-c2ccc(C)cn2)nc1.[Ru+2].c1ccc(-c2nc3c4cccnc4c4ncccc4c3[nH]2)cc1.c1ccc(-c2nc3c4cccnc4c4ncccc4c3[nH]2)cc1
6.4 ± 1.7 | – | 6.3 ± 0.3 | – | 8.1 ± 3.7 | 8.3 ± 3.0 | 8.1 ± 1.7 | > 20 | > 20 | Cc1ccc(-c2ccc(C)cn2)nc1.[Ru+2].c1ccc2nc3c4cccnc4c4ncccc4c3nc2c1.c1ccc2nc3c4cccnc4c4ncccc4c3nc2c1
5.0 ± 0.7 | 3.9 ± 1.3 | 2.8 ± 0.9 | 4.3 ± 0.9 | 6.5 ± 1.8 | 5.3 ± 0.6 | 5.1 ± 0.4 | – | – | [Ru+2].c1ccc(-c2ccccn2)nc1.c1ccc(-c2ccccn2)nc1.c1ccc2nc3c4cccnc4c4ncccc4c3nc2c1
